Data reported in PubChem BioAssay (NCI).
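The compound was tested at five concentrations on cells cultured in 96-well plates, with a 48-hour exposure period. GI50 marks 50% less growth. TGI: total growth inhibition.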

Legend:
Assay in all cases: inhibition of tumour cell growth, NCI panel, 48 h
[1] = tested on: SK-MEL-2 melanoma
[2] = tested on: HOP-92 NSCLC
[3] = tested on: DU-145 prostate
[4] = tested on: COLO 205 colon
[5] = tested on: SNB-19 CNS
[6] = tested on: MDA-MB-231 breast
[7] = tested on: K-562 leukemia
[8] = tested on: EKVX NSCLC
[9] = tested on: IGROV1 ovarian
[10] = tested on: A549 NSCLC
[11] = tested on: OVCAR-8 ovarian
[12] = tested on: UACC-257 melanoma
[13] = tested on: HS 578T breast
[14] = tested on: TK-10 renal
[15] = tested on: NCI-H226 lung
[16] = tested on: OVCAR-4 ovarian
[17] = tested on: RPMI-8226 leukemia
[18] = tested on: HCC-2998 colon
[19] = tested on: SR leukemia
[20] = tested on: MCF7 breast
[21] = tested on: MALME-3M melanoma
[22] = tested on: CCRF-CEM leukemia
[23] = tested on: HCT-15 colon
[24] = tested on: NCI-H23 lung
[25] = tested on: SK-OV-3 ovarian
[26] = tested on: LOX IMVI melanoma
[27] = tested on: NCI-H460 lung
[28] = tested on: SNB-75 CNS
[29] = tested on: HOP-62 NSCLC
[30] = tested on: RXF 393 renal
[31] = tested on: OVCAR-3 ovarian
[32] = tested on: HT29 colon
[33] = tested on: SW-620 colon
[34] = tested on: SN12C renal
[35] = tested on: T-47D breast
[36] = tested on: A498 renal
[37] = tested on: HCT-116 colon
[38] = tested on: UACC-62 melanoma
[39] = tested on: MOLT-4 leukemia
[40] = tested on: SK-MEL-5 melanoma
[41] = tested on: 786-0 renal
[42] = tested on: BT-549 breast
[43] = tested on: PC-3 prostate
[44] = tested on: SF-295 CNS
[45] = tested on: KM12 colon
[46] = tested on: MDA-MB-435
[47] = tested on: SF-539 CNS
[48] = tested on: ACHN renal
[49] = tested on: SF-268 CNS
[50] = tested on: UO-31 renal
[51] = tested on: M14 melanoma
[52] = tested on: SK-MEL-28 melanoma
[53] = tested on: NCI/ADR-RES ovarian
[54] = tested on: CAKI-1 renal
[55] = tested on: HL-60(TB) leukemia
[56] = tested on: U251 CNS
[57] = tested on: OVCAR-5 ovarian
[58] = tested on: NCI-H522 lung

C=C(C)[C@@]12C[C@H](OC(=O)[C@H](O)[C@@H](NC(=O)c3ccccc3)c3ccccc3)C(C)=C1[C@@H](OC(C)=O)C(=O)[C@@]1(C)C([C@@H]2OC(=O)c2cc(F)cc(F)c2)C2(OC(C)=O)CO[C@@H]2C[C@@H]1O (stereo partly specified)
TGI [1]: 2.28 µM
TGI [2]: > 10 µM
TGI [3]: > 5.16 µM
TGI [4]: 0.392 µM
TGI [5]: > 10 µM
TGI [6]: 2.22 µM
TGI [7]: > 6.66 µM
TGI [8]: > 10 µM
TGI [9]: > 10 µM
TGI [10]: > 6.61 µM
TGI [11]: > 4.03 µM
TGI [12]: 2.79 µM
TGI [13]: 0.215 µM
TGI [14]: 9.66 µM
TGI [15]: > 10 µM
TGI [16]: > 10 µM
TGI [17]: 0.547 µM
TGI [18]: 2.16 µM
TGI [19]: > 3.64 µM
TGI [20]: > 10 µM
TGI [21]: > 8.81 µM
TGI [22]: 0.355 µM
TGI [23]: > 5.21 µM
TGI [24]: 3.14 µM
TGI [25]: > 10 µM
TGI [26]: 2.21 µM
TGI [27]: 9.22 µM
TGI [28]: 0.973 µM
TGI [29]: > 5.79 µM
TGI [30]: 0.582 µM
TGI [31]: 1.92 µM
TGI [32]: 1.4 µM
TGI [33]: > 10 µM
TGI [34]: > 4.51 µM
TGI [35]: > 8.57 µM
TGI [36]: 3.03 µM
TGI [37]: 1.22 µM
TGI [38]: 3.26 µM
TGI [39]: 1.24 µM
TGI [40]: > 10 µM
TGI [41]: 3.3 µM
TGI [42]: 2.99 µM
TGI [43]: > 10 µM
TGI [44]: > 10 µM
TGI [45]: > 3.26 µM
TGI [46]: 0.0818 µM
TGI [47]: 0.259 µM
TGI [48]: > 9.36 µM
TGI [49]: > 7.16 µM
TGI [50]: > 10 µM
TGI [51]: > 10 µM
TGI [52]: > 10 µM
TGI [53]: 6.63 µM
TGI [54]: > 10 µM
TGI [55]: 0.224 µM
TGI [56]: > 5.16 µM
TGI [57]: 1.51 µM

COc1ccc(-c2c(NC(=O)Nc3ccc(Cl)c(C(F)(F)F)c3)cnn2-c2ccc(S(N)(=O)=O)cc2)cc1
GI50 [1]: 2.42 µM
TGI [1]: 5.52 µM
GI50 [2]: 2.02 µM
TGI [2]: 7.32 µM
GI50 [3]: 3.46 µM
TGI [3]: 12.1 µM
GI50 [4]: 2.31 µM
TGI [4]: 5.31 µM
GI50 [5]: 3.85 µM
TGI [5]: 14.7 µM
GI50 [6]: 2.04 µM
TGI [6]: 4.72 µM
GI50 [7]: 3.13 µM
TGI [7]: 16.9 µM
GI50 [8]: 3.77 µM
TGI [8]: 16.4 µM
GI50 [9]: 3.66 µM
TGI [9]: 21.3 µM
GI50 [10]: 3.46 µM
TGI [10]: 13.6 µM
GI50 [11]: 3.39 µM
TGI [11]: 13 µM
GI50 [12]: 3.29 µM
TGI [12]: 12 µM
GI50 [13]: 3.41 µM
TGI [13]: 16.9 µM
GI50 [14]: 3.85 µM
TGI [14]: 15.3 µM
GI50 [15]: 3.23 µM
TGI [15]: 14.6 µM
GI50 [16]: 2.9 µM
TGI [16]: 13.1 µM
GI50 [17]: 3.14 µM
TGI [17]: 13.5 µM
GI50 [18]: 3.13 µM
TGI [18]: 8.85 µM
GI50 [19]: 1.99 µM
TGI [19]: 5.83 µM
GI50 [20]: 2.67 µM
TGI [20]: 9.22 µM
GI50 [21]: 2.51 µM
TGI [21]: 7.72 µM
GI50 [22]: 3 µM
TGI [22]: 11.3 µM
GI50 [23]: 3.63 µM
TGI [23]: 14.4 µM
GI50 [24]: 3.14 µM
TGI [24]: 12.4 µM
GI50 [25]: 3.69 µM
TGI [25]: 14 µM
GI50 [26]: 2.75 µM
TGI [26]: 8.36 µM
GI50 [27]: 3.5 µM
TGI [27]: 10.4 µM
GI50 [28]: 2.3 µM
TGI [28]: 13.3 µM
GI50 [29]: 4.07 µM
TGI [29]: 16.1 µM
GI50 [30]: 2.6 µM
TGI [30]: 9.83 µM
GI50 [31]: 2.4 µM
TGI [31]: 6.53 µM
GI50 [58]: 2.98 µM
TGI [58]: 12.3 µM
GI50 [32]: 3.59 µM
TGI [32]: 10.9 µM
GI50 [33]: 3.86 µM
TGI [33]: 13.8 µM
GI50 [34]: 3.58 µM
TGI [34]: 13.1 µM
GI50 [35]: 2.69 µM
TGI [35]: 12.4 µM
GI50 [36]: 2.84 µM
TGI [36]: 8.29 µM
GI50 [37]: 2.04 µM
TGI [37]: 4.22 µM
GI50 [38]: 2.07 µM
TGI [38]: 4.47 µM
GI50 [39]: 2.01 µM
TGI [39]: 5.97 µM
GI50 [40]: 1.9 µM
TGI [40]: 3.85 µM
GI50 [41]: 1.68 µM
TGI [41]: 3.42 µM
GI50 [42]: 1.81 µM
TGI [42]: 4.4 µM
GI50 [43]: 2.87 µM
TGI [43]: 11.4 µM
GI50 [44]: 2.72 µM
TGI [44]: 10.9 µM
GI50 [45]: 3.04 µM
TGI [45]: 11.6 µM
GI50 [46]: 2.77 µM
TGI [46]: 9.6 µM
GI50 [47]: 3.06 µM
TGI [47]: 9.9 µM
GI50 [48]: 3.97 µM
TGI [48]: 14.2 µM
GI50 [49]: 3.34 µM
TGI [49]: 14.7 µM
GI50 [50]: 3.39 µM
TGI [50]: 15.1 µM
GI50 [51]: 3.32 µM
TGI [51]: 12 µM
GI50 [52]: 3.73 µM
TGI [52]: 13.7 µM
GI50 [53]: 24.7 µM
TGI [53]: > 100 µM
GI50 [55]: 2.27 µM
TGI [55]: 5.67 µM
GI50 [56]: 3.3 µM
TGI [56]: 12.3 µM
GI50 [57]: 3.54 µM
TGI [57]: 14.4 µM
